According to patent US9655887B2, “Pharmaceutical composition and the use thereof, and application regime of said pharmaceutical composition for on-demand contraception” (BAYER PHARMA AKTIENGESELLSCHAFT, priority 2013, dated 2017):

Biological target: EP2 subtype of the human PGE2 receptor (hEP2 receptor) (Homo sapiens, UniProt P43116)
Experiment: cAMP antagonism test, human prostaglandin E2 (subtype EP2) receptor signal
Format: cell-based
Procedure, shortened: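 Cells (625000 cells/ml, mixed with cAMP-d2) were preincubated 20 min at RT with compound ([…]). They were then stimulated 60 min at RT with a 3× PGE2 solution (1.5 nM) in PBS-IBMX and lysed for 20 min. cAMP was read by HTRF as the 665/620 nm ratio ×10000, with antagonism seen as a rise in FRET signal.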

Sequence of EP2 subtype of the human PGE2 receptor (hEP2 receptor) (P43116 whole entry): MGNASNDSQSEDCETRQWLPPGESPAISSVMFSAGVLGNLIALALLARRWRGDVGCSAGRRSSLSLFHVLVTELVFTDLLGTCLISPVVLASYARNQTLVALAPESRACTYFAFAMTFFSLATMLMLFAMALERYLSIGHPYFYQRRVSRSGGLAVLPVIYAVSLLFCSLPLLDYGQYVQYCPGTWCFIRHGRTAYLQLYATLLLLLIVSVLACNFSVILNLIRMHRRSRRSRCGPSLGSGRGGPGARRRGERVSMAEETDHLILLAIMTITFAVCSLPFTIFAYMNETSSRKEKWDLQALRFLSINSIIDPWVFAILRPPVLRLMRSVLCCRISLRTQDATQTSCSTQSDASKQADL

`COCCNC(=O)c1ccc2nn(CC3CCN(C(=O)c4ccc(Oc5ccc(F)c(F)c5)cc4)CC3)cc2c1C` [Example E172, 2-({1-[4-(3,4-difluorophenoxy)benzoyl]piperidin-4-yl}methyl)-N-(2-methoxyethyl)-4-methyl-2H-indazole-5-carboxamide] showed an IC50 of over 50 nM.
Work on `COCCNC(=O)c1ccc2nn(CC3CCN(C(=O)c4ccc(-c5ccc(C(F)(F)F)cc5)cc4)CC3)cc2c1C` [Example E173, N-(2-methoxyethyl)-4-methyl-2-[(1-{[4′-(trifluoromethyl)biphenyl-4-yl]carbonyl}-piperidin-4-yl)methyl]-2H-indazole-5-carboxamide] yielded an IC50 of over 50 nM.
In the case of `COCCNC(=O)c1ccc2nn(CC3CCN(C(=O)c4ccc(Oc5cccc(F)c5)cc4)CC3)cc2c1C` [Example E174, 2-({1-[4-(3-fluorophenoxy)benzoyl]piperidin-4-yl}methyl)-N-(2-methoxyethyl)-4-methyl-2H-indazole-5-carboxamide], the IC50 is reported as over 50 nM.
Work on `COCCNC(=O)c1ccc2nn(CC3CCN(C(=O)c4ccc(OC(C)C)cc4F)CC3)cc2c1C` [Example E175, 2-{[1-(2-fluoro-4-isopropoxybenzoyl)piperidin-4-yl]methyl}-N-(2-methoxyethyl)-4-methyl-2H-indazole-5-carboxamide] yielded an IC50 of over 50 nM.
`COCCNC(=O)c1ccc2nn(CC3CCN(C(=O)c4ccc(-c5ccc(C)c(C)c5)cc4F)CC3)cc2c1C` [Example E176, 2-({1-[(3-fluoro-3′,4′-dimethylbiphenyl-4-yl)carbonyl]piperidin-4-yl}methyl)-N-(2-methoxyethyl)-4-methyl-2H-indazole-5-carboxamide] gave an IC50 of over 50 nM.
`COCCNC(=O)c1ccc2nn(CC3CCN(C(=O)c4ccc(-c5ccc(OC)cc5F)cc4F)CC3)cc2c1C` [Example E177, 2-({1-[(2′,3-difluoro-4′-methoxybiphenyl-4-yl)carbonyl]piperidin-4-yl}methyl)-N-(2-methoxyethyl)-4-methyl-2H-indazole-5-carboxamide] showed an IC50 of over 50 nM.
For `COCCNC(=O)c1ccc2nn(CC3CCN(C(=O)c4ccc(OC(F)F)cc4)CC3)cc2c1C` [Example E178, 2-({1-[4-(difluoromethoxy)benzoyl]piperidin-4-yl}methyl)-N-(2-methoxyethyl)-4-methyl-2H-indazole-5-carboxamide], the IC50 was over 50 nM.
Work on `COCCNC(=O)c1ccc2nn(CC3CCN(C(=O)c4ccc(Oc5ccccc5F)cc4)CC3)cc2c1C` [Example E179, 2-({1-[4-(2-fluorophenoxy)benzoyl]piperidin-4-yl}methyl)-N-(2-methoxyethyl)-4-methyl-2H-indazole-5-carboxamide] yielded an IC50 of over 50 nM.
Work on `COCCNC(=O)c1ccc2nn(CC3CCN(C(=O)c4ccc(-c5ccc(C#N)cc5C)cc4)CC3)cc2c1C` [Example E180, 2-({1-[(4′-cyano-2′-methylbiphenyl-4-yl)carbonyl]piperidin-4-yl}methyl)-N-(2-methoxyethyl)-4-methyl-2H-indazole-5-carboxamide] yielded an IC50 of over 50 nM.
For `COCCNC(=O)c1ccc2nn(CC3CCN(C(=O)c4ccc(-c5ccc(Cl)cn5)cc4)CC3)cc2c1C` [Example E181, 2-({1-[4-(5-chloropyridin-2-yl)benzoyl]piperidin-4-yl}methyl)-N-(2-methoxyethyl)-4-methyl-2H-indazole-5-carboxamide], the IC50 was over 50 nM.
With `COCCNC(=O)c1ccc2nn(CC3CCN(C(=O)c4ccc(-c5cccc(C(F)(F)F)n5)cc4)CC3)cc2c1C` [Example E182, N-(2-methoxyethyl)-4-methyl-2-[(1-{4-[6-(trifluoromethyl)pyridin-2-yl]benzoyl}-piperidin-4-yl)methyl]-2H-indazole-5-carboxamide] the IC50 was over 50 nM.
In the case of `COCCNC(=O)c1ccc2nn(CC3CCN(C(=O)c4ccc(-c5ccc(OC)cc5C)cc4)CC3)cc2c1C` [Example E183, N-(2-methoxyethyl)-2-({1-[(4′-methoxy-2′-methylbiphenyl-4-yl)carbonyl]piperidin-4-yl}methyl)-4-methyl-2H-indazole-5-carboxamide], the IC50 is reported as over 50 nM.
Work on `COCCNC(=O)c1ccc2nn(CC3CCN(C(=O)c4ccc(-c5ccc(Cl)cc5C)cc4)CC3)cc2c1C` [Example E184, 2-({1-[(4′-chloro-2′-methylbiphenyl-4-yl)carbonyl]piperidin-4-yl}methyl)-N-(2-methoxyethyl)-4-methyl-2H-indazole-5-carboxamide] yielded an IC50 of over 50 nM.
`COCCNC(=O)c1ccc2nn(CC3CCN(C(=O)c4ccc(-c5ccc(C(C)(C)C#N)cc5)cc4)CC3)cc2c1C` [Example E185, 2-[(1-{[4′-(2-cyanopropan-2-yl)biphenyl-4-yl]carbonyl}piperidin-4-yl)methyl]-N-(2-methoxyethyl)-4-methyl-2H-indazole-5-carboxamide] was tested, and the IC50 was over 50 nM.
Compound `COCCNC(=O)c1ccc2nn(CC3CCN(C(=O)c4ccc(-c5ccc(OC)cn5)cc4)CC3)cc2c1C` [Example E186, N-(2-methoxyethyl)-2-({1-[4-(5-methoxypyridin-2-yl)benzoyl]piperidin-4-yl}methyl)-4-methyl-2H-indazole-5-carboxamide] has an IC50 of over 50 nM.
Compound `COCCNC(=O)c1ccc2nn(CC3CCN(C(=O)c4ccc(-c5ccc(C(F)(F)F)nc5)cc4)CC3)cc2c1C` [Example E187, N-(2-methoxyethyl)-4-methyl-2-[(1-{4-[6-(trifluoromethyl)pyridin-3-yl]benzoyl}-piperidin-4-yl)methyl]-2H-indazole-5-carboxamide] has an IC50 of over 50 nM.
With `COCCNC(=O)c1ccc2nn(CC3CCN(C(=O)c4ccc(-c5ccc(OC)nc5)cc4)CC3)cc2c1C` [Example E188, N-(2-methoxyethyl)-2-({1-[4-(6-methoxypyridin-3-yl)benzoyl]piperidin-4-yl}methyl)-4-methyl-2H-indazole-5-carboxamide] the IC50 was over 50 nM.
Compound `COCCNC(=O)c1ccc2nn(CC3CCN(C(=O)c4ccc(-c5ccc(F)cc5C)cc4)CC3)cc2c1C` [Example E189, 2-({1-[(4′-fluoro-2′-methylbiphenyl-4-yl)carbonyl]piperidin-4-yl}methyl)-N-(2-methoxyethyl)-4-methyl-2H-indazole-5-carboxamide] has an IC50 of over 50 nM.
For `COCCNC(=O)c1ccc2nn(CC3CCN(C(=O)c4ccc(-c5ccc(C)nc5)cc4)CC3)cc2c1C` [Example E190, N-(2-methoxyethyl)-4-methyl-2-({1-[4-(6-methylpyridin-3-yl)benzoyl]piperidin-4-yl}methyl)-2H-indazole-5-carboxamide], the IC50 was over 50 nM.
Work on `COCCNC(=O)c1ccc2nn(CC3CCN(C(=O)c4ccc(-c5cccc(OC)n5)cc4)CC3)cc2c1C` [Example E191, N-(2-methoxyethyl)-2-({1-[4-(6-methoxypyridin-2-yl)benzoyl]piperidin-4-yl}methyl)-4-methyl-2H-indazole-5-carboxamide] yielded an IC50 of over 50 nM.
`COCCNC(=O)c1ccc2nn(CC3CCN(C(=O)c4ccc(-c5ccc(F)cc5OC)cc4)CC3)cc2c1C` [Example E193, 2-({1-[(4′-fluoro-2′-methoxybiphenyl-4-yl)carbonyl]piperidin-4-yl}methyl)-N-(2-methoxyethyl)-4-methyl-2H-indazole-5-carboxamide] was tested, and the IC50 was over 50 nM.
`COCCNC(=O)c1ccc2nn(CC3CCN(C(=O)c4ccc(-c5ccc(Cl)cc5OC)cc4)CC3)cc2c1C` [Example E194, 2-({1-[(4′-chloro-2′-methoxybiphenyl-4-yl)carbonyl]piperidin-4-yl}methyl)-N-(2-methoxyethyl)-4-methyl-2H-indazole-5-carboxamide] showed an IC50 of over 50 nM.
With `COCCNC(=O)c1ccc2nn(CC3CCN(C(=O)c4ccc(-c5cnc(C(F)(F)F)nc5)cc4)CC3)cc2c1C` [Example E195, N-(2-methoxyethyl)-4-methyl-2-[(1-{4-[2-(trifluoromethyl)pyrimidin-5-yl]benzoyl}-piperidin-4-yl)methyl]-2H-indazole-5-carboxamide] the IC50 was over 50 nM.
`COCCNC(=O)c1ccc2nn(CC3CCN(C(=O)c4ccc(-c5ccc(Cl)cc5F)cc4)CC3)cc2c1C` [Example E196, 2-({1-[(4′-chloro-2′-fluorobiphenyl-4-yl)carbonyl]piperidin-4-yl}methyl)-N-(2-methoxy-ethyl)-4-methyl-2H-indazole-5-carboxamide] was tested, and the IC50 was over 50 nM.
`COCCNC(=O)c1ccc2nn(CC3CCN(C(=O)c4ccc(-c5ccc(F)cc5Cl)cc4)CC3)cc2c1C` [Example E197, 2-({1-[(2′-chloro-4′-fluorobiphenyl-4-yl)carbonyl]piperidin-4-yl}methyl)-N-(2-methoxy-ethyl)-4-methyl-2H-indazole-5-carboxamide] was tested, and the IC50 was over 50 nM.
For `COCCNC(=O)c1ccc2nn(CC3CCN(C(=O)c4ccc(-c5cncc(Cl)c5)cc4)CC3)cc2c1C` [Example E198, 2-({1-[4-(5-chloropyridin-3-yl)benzoyl]piperidin-4-yl}methyl)-N-(2-methoxyethyl)-4-methyl-2H-indazole-5-carboxamide], the IC50 was over 50 nM.
`COCCNC(=O)c1ccc2nn(CC3CCN(C(=O)c4ccc(-c5cncc(F)c5)cc4)CC3)cc2c1C` [Example E199, 2-({1-[4-(5-fluoropyridin-3-yl)benzoyl]piperidin-4-yl}methyl)-N-(2-methoxyethyl)-4-methyl-2H-indazole-5-carboxamide] gave an IC50 of over 50 nM.
`COCCNC(=O)c1ccc2nn(CC3CCN(C(=O)c4ccc(-c5cncc(C(F)(F)F)c5)cc4)CC3)cc2c1C` [Example E200, N-(2-methoxyethyl)-4-methyl-2-[(1-{4-[5-(trifluoromethyl)pyridin-3-yl]benzoyl}-piperidin-4-yl)methyl]-2H-indazole-5-carboxamide] was tested, and the IC50 was over 50 nM.
`COCCNC(=O)c1ccc2nn(CC3CCN(C(=O)c4ccc(-c5ccc(C(C)(C)O)cc5)cc4)CC3)cc2c1C` [Example E201, 2-[(1-{[4′-(2-hydroxypropan-2-yl)biphenyl-4-yl]carbonyl}piperidin-4-yl)methyl]-N-(2-methoxyethyl)-4-methyl-2H-indazole-5-carboxamide] gave an IC50 of over 50 nM.
For `COCCNC(=O)c1ccc2nn(CC3CCN(C(=O)c4ccc(-c5cc(F)cc(F)c5)cc4)CC3)cc2c1C` [Example E202, 2-({1-[(3′,5′-difluorobiphenyl-4-yl)carbonyl]piperidin-4-yl}methyl)-N-(2-methoxy-ethyl)-4-methyl-2H-indazole-5-carboxamide], the IC50 was over 50 nM.
